A word on the Solubility: it is the concentration that dissolves in the medium under given conditions. Low values mean a poorly soluble substance, high ones a readily soluble substance. The chromatographic logD is a lipophilicity value derived from retention on a column.

Data set [1] deals with T1, beta-catenin/TCF4 engagement (Homo sapiens, UniProt P35222).
T1 construct: expressed in transfected cells; host or cells: HEK293
T1 sequence (P35222 1-781): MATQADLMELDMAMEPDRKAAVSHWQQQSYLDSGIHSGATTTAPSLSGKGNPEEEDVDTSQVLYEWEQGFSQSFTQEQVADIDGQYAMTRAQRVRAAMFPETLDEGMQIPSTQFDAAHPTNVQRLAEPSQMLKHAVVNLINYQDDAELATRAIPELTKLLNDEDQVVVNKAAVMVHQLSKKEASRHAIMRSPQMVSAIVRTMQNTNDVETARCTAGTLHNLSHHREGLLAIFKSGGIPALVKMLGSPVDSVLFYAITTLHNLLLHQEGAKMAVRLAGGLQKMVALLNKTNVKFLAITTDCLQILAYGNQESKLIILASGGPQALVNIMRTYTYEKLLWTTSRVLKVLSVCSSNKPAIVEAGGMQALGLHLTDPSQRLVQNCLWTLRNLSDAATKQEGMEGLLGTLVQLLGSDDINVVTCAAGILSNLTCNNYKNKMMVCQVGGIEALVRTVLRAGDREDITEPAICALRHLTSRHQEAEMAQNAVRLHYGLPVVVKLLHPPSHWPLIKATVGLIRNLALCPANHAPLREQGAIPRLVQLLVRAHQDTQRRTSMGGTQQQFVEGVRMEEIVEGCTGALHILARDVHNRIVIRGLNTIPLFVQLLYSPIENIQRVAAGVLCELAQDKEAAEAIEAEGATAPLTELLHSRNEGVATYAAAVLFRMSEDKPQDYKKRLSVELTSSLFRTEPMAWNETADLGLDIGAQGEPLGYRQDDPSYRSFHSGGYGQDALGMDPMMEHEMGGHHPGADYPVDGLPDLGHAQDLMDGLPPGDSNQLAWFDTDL
As to the kind of experiment: Nano-BRET target engagement assay (B-cat-Halo & TCF4-Luc in HEK293 cells). The class given is cell-based. To be noted: for inhibition at 10 µM: HEK293, @ 10 uM, read-out: NanoBRET % inh @ 10 uM. Background: Bioluminescence resonance energy transfer reports proximity on the nanometre scale.

The nature of a further data set: Solubility in PBS. The class given is physicochemical. An outline of the steps:
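Solubility is derived from HPLC peak areas: the ratio of the PBS supernatant peak to a 50 μM DMSO peptide peak, times 50 uM.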

The next data set in a line: CHI Log D procedure. The class given is physicochemical. To be noted: for CHI Log D: pH 7.4; for chromatographic logD: pH 7.4, CHI Log D.
Data set [2] has as its target T2, full-length beta-Catenin (Uniprot ID P35222) (Homo sapiens, UniProt P35222).
T2 construct: 10 nM full-length beta-Catenin (Uniprot ID P35222)
T2 sequence (P35222 1-781): T1 sequence (P35222 1-781)
Description: Fluorescence polarization IC50 (beta-catenin / 5FAM-TCF4 10-53 competition). The class given is binding.

Converted amounts (≈) assume the structure as drawn. Where two headings read alike, the source gives them in different places.

On to `CC(=O)N1CCC[C@]12CC=CCCCC1(CCCC=CCCCCOC(=O)N3CC[C@@](C(=O)N[C@@H](Cc4ccsc4)C(=O)N[C@@H](Cc4csc5ccccc45)C(=O)N[C@@H](CCC(N)=O)C(N)=O)(C3)NC(=O)[C@H](CC(N)=O)NC(=O)[C@H](Cc3ccccc3)NC(=O)[C@H](C)NC(=O)[C@H](C)NC(=O)[C@H](CC(=O)O)NC(=O)[C@H](CC(=O)O)NC1=O)NC(=O)[C@H](CC(C)(C)C)NC(=O)[C@H](CC(=O)O)NC2=O` (stereo partly drawn) [I-767, Ac-PL3-Asp-Npg-B5-Asp-Asp-Ala-Ala-Phe-Asn-PyrS3-3Thi-BztA-Gln-NH2], for which the IC50 in data set [1] (read-out: NanoBRET Abs IC50) was determined as 37.2 µM; in data set [2] (read-out: FP EC50), 0.012 µM; in data set [2] (read-out: beta-Catenin FP IC50) it was 0.012 µM. For the same compound, the “Solubility” value in “Solubility in PBS” came to 50 µM (≈ 96.6 µg/mL). The “CHI Log D” value in the data set “CHI Log D procedure” amounted to 2.004.

Regarding `CC(=O)N1CCC[C@]12CC=CCCCC1(CCCC=CCCCCOC(=O)N3CC[C@@](C(=O)N[C@@H](Cc4ccsc4)C(=O)N[C@@H](Cc4csc5ccccc45)C(=O)N[C@@H](Cc4c[nH]cn4)C(N)=O)(C3)NC(=O)[C@H](CC(N)=O)NC(=O)[C@H](Cc3ccccc3)NC(=O)[C@H](C)NC(=O)[C@H](C)NC(=O)[C@H](CC(=O)O)NC(=O)[C@H](CC(=O)O)NC1=O)NC(=O)[C@H](CC(C)(C)C)NC(=O)[C@H](CC(=O)O)NC2=O` (stereo partly drawn) [I-775, Ac-PL3-Asp-Npg-B5-Asp-Asp-Ala-Ala-Phe-Asn-PyrS3-3Thi-BztA-His-NH2], the inhibition at 10 µM in data set [1] was found to be 5.1%. Further, the IC50 in data set [1] (read-out: NanoBRET Abs IC50) was greater than 20 µM; in data set [2] (read-out: FP EC50), 0.007 µM; in data set [2] (read-out: beta-Catenin FP IC50), 0.006 µM. For the same compound, the “Solubility” value in the data set “Solubility in PBS” was determined as 47 µM (≈ 91.2 µg/mL). Also, in the data set “CHI Log D procedure”, the “CHI Log D” value was 2.092.

Take `CC(=O)N1CCC[C@]12CC=CCCCC1(CCCC=CCCCOC(=O)N3CC[C@@](C(=O)N[C@@H](Cc4ccccc4)C(=O)N[C@@H](Cc4csc5ccccc45)C(=O)N[C@@H](Cc4c[nH]cn4)C(N)=O)(C3)NC(=O)[C@H](CC(N)=O)NC(=O)[C@H](Cc3ccccc3)NC(=O)[C@H](C)NC(=O)[C@H](C)NC(=O)[C@H](CC(=O)O)NC(=O)[C@H](CC(=O)O)NC1=O)NC(=O)[C@H](CC(C)(C)C)NC(=O)[C@H](CC(=O)O)NC2=O` (stereo partly drawn) [I-777, Ac-PL3-Asp-Npg-B5-Asp-Asp-Ala-Ala-Phe-Asn-PyrS2-Phe-BztA-His-NH2]: in data set [1], the inhibition at 10 µM amounted to 24.5%. In addition, the IC50 in data set [1] (read-out: NanoBRET Abs IC50) worked out at 19.8 µM; in data set [1] (read-out: NanoBRET IC50), 14.4 µM; in data set [2] (read-out: beta-Catenin FP IC50), 0.005 µM. Besides, the “Solubility” value in the data set “Solubility in PBS” was determined as 50 µM (≈ 96.1 µg/mL). In the data set “CHI Log D procedure”, the chromatographic logD was 2.15.

On to `CC(=O)N1CCC[C@]12CC=CCCCC1(CCCC=CCCCOC(=O)N3CC[C@@](C(=O)N[C@@H](Cc4cccs4)C(=O)N[C@@H](Cc4csc5ccccc45)C(=O)N[C@@H](CCC(N)=O)C(N)=O)(C3)NC(=O)[C@H](CC(N)=O)NC(=O)[C@H](Cc3ccccc3)NC(=O)[C@H](C)NC(=O)[C@H](C)NC(=O)[C@H](CC(=O)O)NC(=O)[C@H](CC(=O)O)NC1=O)NC(=O)[C@H](CC(C)(C)C)NC(=O)[C@H](CC(=O)O)NC2=O` (stereo partly drawn) [I-778, Ac-PL3-Asp-Npg-B5-Asp-Asp-Ala-Ala-Phe-Asn-PyrS2-2Thi-BztA-Gln-NH2], for which the values for the IC50 in data set [1] (read-out: NanoBRET Abs IC50) and in data set [2] (read-out: beta-Catenin FP IC50) were 11.2 µM and 0.008 µM, respectively. In “Solubility in PBS” (Solubility (uM)), the Solubility worked out at 43 µM (≈ 82.5 µg/mL). In “CHI Log D procedure”, the chromatographic logD turned out to be 2.04.

Consider `COc1ccccc1C[C@H](NC(=O)[C@]12CCN(C1)C(=O)OCCCC=CCCCC1(CCCC=CC[C@]3(CCCN3C(C)=O)C(=O)N[C@@H](CC(=O)O)C(=O)N[C@@H](CC(C)(C)C)C(=O)N1)C(=O)N[C@@H](CC(=O)O)C(=O)N[C@@H](CC(=O)O)C(=O)N[C@@H](C)C(=O)N[C@@H](C)C(=O)N[C@@H](Cc1ccccc1)C(=O)N[C@@H](CC(N)=O)C(=O)N2)C(=O)N[C@@H](Cc1csc2ccccc12)C(=O)N[C@@H](CCC(N)=O)C(N)=O` (stereo partly drawn) [I-780, Ac-PL3-Asp-Npg-B5-Asp-Asp-Ala-Ala-Phe-Asn-PyrS2-2OMeF-BztA-Gln-NH2], for which the IC50 in data set [1] (read-out: NanoBRET Abs IC50) amounted to 20.7 µM; in data set [1] (read-out: NanoBRET IC50), 17.1 µM; in data set [2] (read-out: beta-Catenin FP IC50) it was 0.009 µM. In “Solubility in PBS”, the “Solubility” value turned out to be 50 µM (≈ 97.1 µg/mL). For the same compound, the chromatographic logD in the data set “CHI Log D procedure” is 2.08.

Consider `COc1ccccc1C[C@H](NC(=O)[C@]12CCN(C1)C(=O)OCCCC=CCCCC1(CCCC=CC[C@]3(CCCN3C(C)=O)C(=O)N[C@@H](CC(=O)O)C(=O)N[C@@H](CC(C)(C)C)C(=O)N1)C(=O)N[C@@H](CC(=O)O)C(=O)N[C@@H](CC(=O)O)C(=O)N[C@@H](C)C(=O)N[C@@H](C)C(=O)N[C@@H](Cc1ccccc1)C(=O)N[C@@H](CC(N)=O)C(=O)N2)C(=O)N[C@@H](Cc1csc2ccccc12)C(=O)N[C@@H](Cc1c[nH]cn1)C(N)=O` (stereo partly drawn) [I-781, Ac-PL3-Asp-Npg-B5-Asp-Asp-Ala-Ala-Phe-Asn-PyrS2-2OMeF-BztA-His-NH2], for which the inhibition at 10 µM in data set [1] is 24%. In addition, the IC50 in data set [1] (read-out: NanoBRET IC50) turned out to be 11.6 µM; in data set [2] (read-out: beta-Catenin FP IC50), 0.005 µM. The amount in solution in “Solubility in PBS” (Solubility (uM)) (Solubility) came to 41 µM (≈ 80 µg/mL). The compound further returned a chromatographic logD in “CHI Log D procedure” of 2.16.

For the compound `CC(=O)N1CCC[C@]12CC=CCCCC1(CCCC=CCCCOC(=O)N3CC[C@@](C(=O)N[C@@H](Cc4ccccc4C)C(=O)N[C@@H](Cc4csc5ccccc45)C(=O)N[C@@H](Cc4c[nH]cn4)C(N)=O)(C3)NC(=O)[C@H](CC(N)=O)NC(=O)[C@H](Cc3ccccc3)NC(=O)[C@H](C)NC(=O)[C@H](C)NC(=O)[C@H](CC(=O)O)NC(=O)[C@H](CC(=O)O)NC1=O)NC(=O)[C@H](CC(C)(C)C)NC(=O)[C@H](CC(=O)O)NC2=O` (stereo partly drawn) [I-782, Ac-PL3-Asp-Npg-B5-Asp-Asp-Ala-Ala-Phe-Asn-PyrS2-2MeF-BztA-His-NH2], the IC50 in data set [1] (read-out: NanoBRET Abs IC50) was 12.2 µM; in data set [2] (read-out: beta-Catenin FP IC50), 0.006 µM. In the data set “Solubility in PBS” (Solubility (uM)), this compound gave a Solubility of 38 µM (≈ 73.5 µg/mL). In addition, in “CHI Log D procedure”, the chromatographic logD came to 2.21.

For `CC(=O)N1CCC[C@]12CC=CCCCC1(CCCC=CCCCOC(=O)N3CC[C@@](C(=O)N[C@@H](Cc4ccccc4Cl)C(=O)N[C@@H](Cc4csc5ccccc45)C(=O)N[C@@H](CCC(N)=O)C(N)=O)(C3)NC(=O)[C@H](CC(N)=O)NC(=O)[C@H](Cc3ccccc3)NC(=O)[C@H](C)NC(=O)[C@H](C)NC(=O)[C@H](CC(=O)O)NC(=O)[C@H](CC(=O)O)NC1=O)NC(=O)[C@H](CC(C)(C)C)NC(=O)[C@H](CC(=O)O)NC2=O` (stereo partly drawn) [I-783, Ac-PL3-Asp-Npg-B5-Asp-Asp-Ala-Ala-Phe-Asn-PyrS2-2C1F-BztA-Gln-NH2], the inhibition at 10 µM in data set [1] was found to be 50.9%. Besides, the results for the IC50 in data set [1] (read-out: NanoBRET Abs IC50), in data set [1] (read-out: NanoBRET IC50) and in data set [2] (read-out: beta-Catenin FP IC50) were 6.2 µM, 7.5 µM and 0.007 µM, respectively. This compound also came in with a Solubility in the data set “Solubility in PBS” (Solubility (uM)) of 48 µM (≈ 93.4 µg/mL). In “CHI Log D procedure”, the chromatographic logD was 2.19.

As for `CC(=O)N1CCC[C@]12CC=CCCCC1(CCCC=CCCCOC(=O)N3CC[C@@](C(=O)N[C@@H](Cc4ccccc4Cl)C(=O)N[C@@H](Cc4csc5ccccc45)C(=O)N[C@@H](Cc4c[nH]cn4)C(N)=O)(C3)NC(=O)[C@H](CC(N)=O)NC(=O)[C@H](Cc3ccccc3)NC(=O)[C@H](C)NC(=O)[C@H](C)NC(=O)[C@H](CC(=O)O)NC(=O)[C@H](CC(=O)O)NC1=O)NC(=O)[C@H](CC(C)(C)C)NC(=O)[C@H](CC(=O)O)NC2=O` (stereo partly drawn) [I-784, Ac-PL3-Asp-Npg-B5-Asp-Asp-Ala-Ala-Phe-Asn-PyrS2-2C1F-BztA-His-NH2], the inhibition at 10 µM in data set [1] came out at 35.1%. Moreover, the values for the IC50 in data set [1] (read-out: NanoBRET Abs IC50), in data set [1] (read-out: NanoBRET IC50) and in data set [2] (read-out: beta-Catenin FP IC50) were 14.5 µM, 12.1 µM and 0.006 µM, respectively. Further, the Solubility in “Solubility in PBS” (Solubility (uM)) came out at 21 µM (≈ 41.1 µg/mL). Also, the chromatographic logD in “CHI Log D procedure” was determined as 2.29.

(Values after patent US20240116985A1, “STAPLED PEPTIDES AND METHODS THEREOF” (priority 2020, published 2024).)
